Assay results published in PubChem BioAssay AID651581 (Sanford-Burnham Center for Chemical Genomics, 2012).
Calls of active or inactive are those of the source. No rule for the calls is given here.

How the values were obtained:
[1] = target: Hypoxia-inducible factor 1-alpha (Homo sapiens) (UniProt Q16665); experiment: HIF-2a and HIF-1a reporter inhibition panel, dose response, selectivity assay for HIF-2a inhibitor project, cell-based, luminescence (AID 651581); conditions: HIF-1a
[2] = target: Endothelial PAS domain-containing protein 1 (Homo sapiens) (UniProt Q99814); experiment: as above

Chain of Hypoxia-inducible factor 1-alpha (Homo sapiens) (Q16665 whole entry, looked up, the tested form may be a part): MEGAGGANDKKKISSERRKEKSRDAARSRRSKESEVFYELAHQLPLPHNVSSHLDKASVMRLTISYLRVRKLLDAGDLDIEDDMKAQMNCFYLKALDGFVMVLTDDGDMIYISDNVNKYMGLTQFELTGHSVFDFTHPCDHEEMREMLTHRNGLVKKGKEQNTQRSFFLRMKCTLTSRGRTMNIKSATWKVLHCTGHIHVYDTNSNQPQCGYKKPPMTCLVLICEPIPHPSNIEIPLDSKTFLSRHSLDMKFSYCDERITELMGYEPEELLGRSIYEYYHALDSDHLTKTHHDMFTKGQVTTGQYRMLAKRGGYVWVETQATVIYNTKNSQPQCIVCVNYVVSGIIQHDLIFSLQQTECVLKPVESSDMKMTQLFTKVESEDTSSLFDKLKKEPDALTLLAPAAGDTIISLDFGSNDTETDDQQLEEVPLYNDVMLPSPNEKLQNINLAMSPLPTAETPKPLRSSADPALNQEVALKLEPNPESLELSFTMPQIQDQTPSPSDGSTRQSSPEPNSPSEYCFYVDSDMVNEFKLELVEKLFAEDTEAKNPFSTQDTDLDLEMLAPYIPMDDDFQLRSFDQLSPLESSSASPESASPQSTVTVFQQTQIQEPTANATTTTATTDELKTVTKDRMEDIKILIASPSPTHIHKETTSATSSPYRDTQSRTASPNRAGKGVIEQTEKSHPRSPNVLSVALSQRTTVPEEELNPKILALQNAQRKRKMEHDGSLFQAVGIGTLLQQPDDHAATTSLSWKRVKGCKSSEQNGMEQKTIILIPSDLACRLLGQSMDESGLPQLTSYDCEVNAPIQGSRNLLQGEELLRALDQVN

Row | SMILES | IC50 ([1]; mean of runs) | IC50 ([1]; run 1) | IC50 ([1]; run 2) | IC50 ([2]; HIF-2a PANC, mean of runs) | IC50 ([2]; HIF-2a PANC, run 1) | IC50 ([2]; HIF-2a PANC, run 2) | IC50 ([2]; HIF-2a, mean of runs) | IC50 ([2]; HIF-2a, run 1) | IC50 ([2]; HIF-2a, run 2)
1 | O=C(O)c1ccc(N/N=C/c2ccc(C(F)(F)F)cc2)cc1 | inactive | 22.5 µM | 21.7 µM | inactive | 75.9 µM | 8.53 µM | 9.84 µM | 9.59 µM | 10.1 µM
2 | CCS(=O)(=O)c1ncc(Cl)c(C(=O)Nc2ccc(C)cc2)n1 | inactive | 23.9 µM | 20 µM | 30.5 µM | 30.4 µM | 30.7 µM | inactive | 10.8 µM | 9.79 µM
3 | Cc1nc2cc(-c3ccccc3)nn2c(C)c1CCC(=O)N1CCC2(CC1)OCCO2 | 53 µM | 53.9 µM | 52 µM | 2.49 µM | 2.63 µM | 2.35 µM | 0.832 µM | 0.742 µM | 0.921 µM
4 | Cc1cc(NC(=O)c2ccccc2)c(Cl)cc1N | 11.5 µM | 10 µM | 12.9 µM | inactive | 10.1 µM | 19.5 µM | 2.75 µM | 2.56 µM | 2.94 µM
5 | O=C(CCCc1ccccc1)Nc1cccc(C(=O)O)c1 |  | > 99 µM | > 99 µM | > 99 µM (inactive) | > 99 µM | > 99 µM | inactive | 17 µM | 14.5 µM
6 | Nc1ccc(-c2cc3ccccc3c(=O)o2)cc1 |  | 0.423 µM | > 99 µM | 0.7 µM | 0.782 µM | 0.618 µM | < 1 µM | < 1 µM | < 1 µM
7 | CCOc1ccc(OCc2cccc(C(=O)N3CCOCC3)c2)cc1 |  | > 99 µM | > 99 µM | > 99 µM (inactive) | > 99 µM | > 99 µM |  | 7.59 µM | < 30 µM
8 | CN(C)c1ccc(Nc2nc(N)c3ccccc3n2)cc1 |  | 13.7 µM | < 30 µM | 17.9 µM | 24.8 µM | 11 µM | < 30 µM (inactive) | < 30 µM | < 30 µM
9 | NNC(=O)c1cccc(COc2ccc3c(c2)CCC3)c1 |  | > 99 µM | > 99 µM | > 99 µM (inactive) | > 99 µM | > 99 µM | < 30 µM (inactive) | < 30 µM | < 30 µM
10 | Cc1c(CCC(=O)O)c(=O)oc2cc(OCc3ccccc3Br)ccc12 | inactive | 8.16 µM | 20.8 µM | 5.79 µM | 2.48 µM | 9.09 µM | 6.3 µM | 6.05 µM | 6.54 µM
11 | CN(C)c1c([N+](=O)[O-])cc(N2C(=O)C=CC2=O)cc1[N+](=O)[O-] | 52.2 µM | 63.9 µM | 40.5 µM | inactive | 22.2 µM | 41.7 µM | 8.6 µM | 8.29 µM | 8.9 µM
12 | COc1cccc(/C=N/Nc2ncccc2[N+](=O)[O-])c1OC | inactive | 20.3 µM | 20.1 µM | 21.8 µM | 22 µM | 21.6 µM |  | 8.21 µM | < 30 µM
13 | O=C(NNc1nc2ccccc2o1)c1ccccc1 |  | 46.1 µM | > 99 µM | > 99 µM (inactive) | > 99 µM | > 99 µM | 6.37 µM | 6.68 µM | 6.06 µM
14 | Cc1cc(SC#N)cc(C)c1NC(=O)CCl | inactive | 20.2 µM | 28.5 µM |  | > 99 µM | 93.4 µM | inactive | 12.6 µM | 7.78 µM
15 | COC(=O)COc1ccc(-c2nccc(-c3ccc(Br)cc3)n2)cc1 |  | > 99 µM | > 99 µM |  | 6.31 µM | > 99 µM | 7.51 µM | 7.55 µM | 7.47 µM
16 | CCOc1ccc(-c2cc(CCCC(=O)Nc3cc(OC)ccc3OC)no2)cc1 | inactive | 4.99 µM | 5.07 µM | 0.447 µM | 0.529 µM | 0.365 µM | 1.99 µM | 2.32 µM | 1.66 µM
17 | CCOC(=O)C1CCN(C(=O)CCc2c(C)nc3cc(-c4ccccc4)nn3c2C)CC1 | 9.79 µM | 12.6 µM | 6.98 µM | 2.16 µM | 1.83 µM | 2.48 µM | 1.39 µM | 1.51 µM | 1.27 µM
18 | C/C(=N\NC(=O)c1n[nH]c2c1CCC2)c1cccs1 | inactive | 13.7 µM | 11.6 µM | inactive | 27.1 µM | 15.3 µM | 4.55 µM | 4.42 µM | 4.68 µM

Row | SMILES | IC50 ([1]; mean of runs) | IC50 ([1]; run 1) | IC50 ([1]; run 2) | IC50 ([2]; HIF-2a PANC, mean of runs) | IC50 ([2]; HIF-2a PANC, run 1) | IC50 ([2]; HIF-2a PANC, run 2) | IC50 ([2]; HIF-2a, mean of runs) | IC50 ([2]; HIF-2a, run 1) | IC50 ([2]; HIF-2a, run 2)
19 | COC(=O)c1ccc(C(=O)OC)c(-n2c(=O)c3ccccc3c3ccccc3c2=O)c1 | inactive | 38.2 µM | 42.4 µM | > 99 µM (inactive) | > 99 µM | > 99 µM | inactive | 25.7 µM | 25.2 µM
20 | COc1ccc(-n2nc3ccc(N)cc3n2)cc1 | 43.5 µM | 24.9 µM | 62.1 µM | 2.26 µM | 3.23 µM | 1.3 µM | inactive | 7.4 µM | 14.9 µM
21 | O=C(Nc1ccccc1)c1nnsc1S(=O)(=O)c1ccc(Cl)cc1 | 28.6 µM | 27 µM | 30.2 µM | inactive | 44.3 µM | 80.5 µM | 7.71 µM | 7.38 µM | 8.04 µM
22 | Cc1nn(-c2ccccc2)c(Cl)c1/C=N/Nc1ccc(Cl)c(C(=O)O)c1 | > 99 µM (inactive) | > 99 µM | > 99 µM |  | > 99 µM | > 99 µM |  | < 30 µM | > 99 µM
23 | O=C(O)c1cccc(COc2ccccc2Cl)c1 | 21.2 µM | 17.8 µM | 24.6 µM |  | 21.1 µM | > 99 µM | 2.58 µM | 2.52 µM | 2.65 µM
24 | N#C/C(=C\c1ccccc1)C(=O)N(c1ccccn1)C1CCCCC1 | inactive | 25.8 µM | 24.7 µM | inactive | 98.1 µM | 71.2 µM | inactive | 14.9 µM | 13.7 µM
25 | O=C(O)c1cccc(N/N=C/c2cccs2)c1 |  | > 99 µM | > 99 µM |  | > 99 µM | 45.8 µM | 5.74 µM | 5.56 µM | 5.91 µM
26 | CCOC(=O)c1cccc(COC(=O)c2cccc(-c3nnc(-c4ccccc4)o3)c2)c1 |  | > 99 µM | > 99 µM | > 99 µM (inactive) | > 99 µM | > 99 µM | inactive | 13.2 µM | 16.5 µM
27 | O=C(O)c1cccc(C(=O)Nc2cccc(NC(=O)C3CCCO3)c2)c1 (centres undefined) |  | > 99 µM | > 99 µM | > 99 µM (inactive) | > 99 µM | > 99 µM | inactive | 30.8 µM | 26.9 µM
28 | CCCCOC(=O)c1ccc(NC(=S)NC(=O)c2c(Br)c(C)nn2C)cc1 |  | > 99 µM | > 99 µM | inactive | 8.11 µM | 16.2 µM | 0.894 µM | 0.821 µM | 0.968 µM
29 | Cc1ccc(Oc2ccc(OCC(=O)Nc3ccncc3)cc2)cc1 | inactive | 14.9 µM | 15.9 µM | 3.59 µM | 3.76 µM | 3.42 µM | 5.89 µM | 5.61 µM | 6.17 µM
30 | Cc1ccc(/C=N/Nc2cccc(C(=O)O)c2)s1 | > 99 µM (inactive) | > 99 µM | > 99 µM |  | > 99 µM | > 99 µM |  | < 30 µM | > 99 µM
31 | Cc1cc(C(=O)Nc2cccc(C(=O)O)c2)oc1C |  | 41.9 µM | > 99 µM | > 99 µM (inactive) | > 99 µM | > 99 µM | 6.46 µM | 6.81 µM | 6.12 µM
32 | O=C1C=CC(=O)N1c1cccc(-c2ccccc2)c1 | 31.4 µM | 26.2 µM | 36.6 µM |  | > 99 µM | 58.5 µM | 8.09 µM | 7.96 µM | 8.22 µM
33 | Cc1ccoc1C(=O)Nc1ccc(CC(=O)O)cc1 |  | > 99 µM | > 99 µM | 0.796 µM | 0.895 µM | 0.698 µM | 0.374 µM | 0.366 µM | 0.382 µM
34 | CCOC(=O)NC(=O)COC(=O)CCCSc1nc2ccccc2s1 | inactive | 24.2 µM | 13.4 µM | 11.3 µM | 12 µM | 10.7 µM | 9.56 µM | 8.83 µM | 10.3 µM
35 | CCNC(=O)NC(=O)COC(=O)CCCSc1nc2ccccc2s1 | 17.9 µM | 28.3 µM | 7.51 µM | 12.1 µM | 10.8 µM | 13.4 µM | 5.05 µM | 5.08 µM | 5.02 µM
36 | CCOc1ccc(C(=O)Nc2nnc(SCC(=O)NCC3CCCO3)s2)cc1 (centres undefined) |  | > 99 µM | > 99 µM | 46.9 µM | 21 µM | 72.7 µM | < 30 µM (inactive) | < 30 µM | < 30 µM
